# Literature values in patent publication US20120195873A1, “METHODS OF A[…] LOSS OF […]” (NESTEC S.A., priority 2009, published 2012).
# Legend:
# type II muscle fibers = details: vitamin D deficient patients, pre- vs post-supplementation
# skeletal muscle [1] = details: vitamin D deficient rats
# [2] = system: lower extremity muscle performance; details: elderly; amounts bringing mean serum 25-OH Vitamin D to 66-84 nmol/L
# skeletal muscle [3] = details: animal data, exogenous 25-OH
# [4] = 400 mg twice daily; heavy exercise, calcium loss through sweat
compound,measurement,setting,value
vitamin D,atrophy of type II muscle fibers in biopsies,type II muscle fibers,significant improvements were observed post-supplementation
same,muscle mass,skeletal muscle [1],increased muscle mass
same,rate of myofibrillar protein degradation,skeletal muscle [1],decreased rate of myofibrillar protein degradation
same,weight gain,skeletal muscle [1],weight gain
same,lower extremity muscle performance,[2],improves lower extremity muscle performance
25-Hydroxy Vitamin D [25-OH],skeletal muscle protein synthesis,skeletal muscle [3],increases skeletal muscle protein synthesis
O=C([O-])[O-].[Ca+2] [calcium carbonate],offset of exercise-induced net calcium loss,[4],sufficient to offset this loss
